Several values for one entry are separate records, joined by “and”; a condition that tells them apart may be missing. Equal values may be shown once. Read-outs that look alike come from different tables or passages of the source. One block for each molecule: values may come before it.
Legend:
[1] = Pharmacokinetic study after IP administration; format: in vivo, male C57BL/6 mice; details: for AUC(0-t) / Cl / Cmax / Tmax / Vd / half-life / AUC(0-inf): ip; for AUC(0-inf): AUCINF
Procedure: During the experimental procedure, animals were identified with a permanent marker (tail code numbers). […] They underwent a period of at least 5 days of observation and acclimatization between the date of arrival and the start of the procedure. […] Diet was analyzed by the manufacturer to detect possible contaminants. Tap water was supplied by CASSA (Servei d’Aigües de Sabadell) and was provided to the animals by bottles ad libitum. […] Ministry of Agriculture, Livestock, and Fishing of the autonomous government of Catalonia, Spain. […] Formulations were prepared on the day of the study. […] Animals were weighed before each administration to adjust the required volume. […] Blood samples (0.5–0.8 mL) were collected from anesthetized animals with isoflurane by cava vein puncture in tubes containing K2-EDTA 5%. Blood samples were centrifuged at 10,000 rpm for 5 min to obtain plasma that was stored at −20 °C until analysis. Analytical measurements were performed by LC–MS/MS. Pharmacokinetics parameters were calculated with Phoenix 64 (WinNonlin).

CYP 2D6 = CYP 2D6 (Homo sapiens, UniProt P10635); test: Cytochrome P450 inhibition, fluorescence detection; format: in vitro ADME; details: at 10 μM
[2] = Concentrations in plasma and pancreatic tissue in the efficacy study; format: in vivo, C57BL/6 male mice; details: 10 h post-administration; for concentration at 10 h: male, C57BL/6, mouse, intraperitoneal
From the text: During the experimental procedure, the animals were identified with a permanent marker (tail code numbers). […] They underwent a period of 7 days of acclimatization between the date of arrival and the start of the procedure. […] Diet was provided to the animals ad libitum, but they were fasted overnight before the first cerulein injection, and food was replaced after the last cerulein injection. Tap water was supplied by CASSA (Servei d’Aigües de Sabadell) ad libitum. […] Ministry of agriculture, livestock and fishing of the Autonomous Government of Catalonia, Spain. […] The vehicle was prepared the day before and kept at 4 °C. Pancreatitis induction: Mice (n = 41) were weighed, identified by a distinct number at the base of the tail, and fasted overnight. Cerulein (cerulein and cerulein + 22 groups) (50 μg/kg, prepared in 0.9% NaCl) or vehicle (0.9% NaCl) (control group) were intraperitoneally injected (V = 5 mL/kg) 12 consecutive times, at 1 h intervals (h = 0–11). Food was replaced after the last injection. A satellite experiment was designed where animals (n = 3) were distributed in control, cerulein, and cerulein + 22-treated groups. Pancreatitis was induced by seven injections of cerulein (or vehicle in the control group) at 1 h intervals (h = 0–6). […] Animals from the control and cerulein groups received vehicle administration (10% 2-hydroxypropyl-β-cyclodextrin) (V = 10 mL/kg). Extra groups were treated 2 h after the first cerulein injection: 22 (0.3 mg/kg), control, and cerulein groups (10% 2-hydroxypropyl-β-cyclodextrin). […] Blood was collected from the vena cava in an Eppendorf containing K2-EDTA and centrifuged at 10,000 rpm for 5 min for plasma collection. Plasma was stored at −80 °C until analysis. The mice were sacrificed by cervical dislocation and the pancreases were dissected and weighed. Pancreases from three animals were frozen in liquid N2 and stored at −80 °C until analysis. Pancreases from five mice were sectioned and one part was placed in 10% formalin and sent to Anapath (Granada, Spain) for histology analysis and the other was immediately placed in RNAse-free eppendorfs, frozen in N2, and stored at −80 °C for gene expression assays.

[3] = male, C57BL/6, mouse, in vivo, 3 mg/kg

CYP 2D6, sequence (P10635 whole entry): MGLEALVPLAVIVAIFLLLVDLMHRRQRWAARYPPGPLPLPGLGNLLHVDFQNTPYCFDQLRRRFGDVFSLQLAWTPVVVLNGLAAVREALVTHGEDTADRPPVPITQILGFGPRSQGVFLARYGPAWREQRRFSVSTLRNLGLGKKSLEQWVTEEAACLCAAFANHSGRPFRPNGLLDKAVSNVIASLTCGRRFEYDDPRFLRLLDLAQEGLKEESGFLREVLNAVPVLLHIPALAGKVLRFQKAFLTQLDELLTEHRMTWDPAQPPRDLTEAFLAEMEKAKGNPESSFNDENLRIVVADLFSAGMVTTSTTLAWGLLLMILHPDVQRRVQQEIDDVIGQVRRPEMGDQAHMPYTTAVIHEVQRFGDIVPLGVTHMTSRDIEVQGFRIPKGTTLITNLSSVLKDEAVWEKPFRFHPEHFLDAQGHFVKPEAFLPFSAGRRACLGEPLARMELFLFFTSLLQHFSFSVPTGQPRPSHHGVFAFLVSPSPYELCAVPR

Total Concentration in mouse plasma, individual mice ([1]; male, C57BL/6, mouse, in vivo, 24 h): 0 ng/mL
AUC(0-t) [1, 3]: 2260 ng·h/mL
Cl [1, 3]: 21.5 mL/min/kg
Cmax [1, 3]: 1610 ng/mL
Tmax [1, 3]: 0.5 h
Vd [1, 3]: 2.18 L/kg
half-life [1, 3]: 1.17 h
AUC(0-inf) [1, 3]: 2320 ng·h/mL
CYP 2D6 inhibition (CYP 2D6): 1 ± 1%
SMILES: CC12CC3CC(NC(=O)N[C@H]4CC[C@H](Oc5ccc(C(=O)O)cc5)CC4)(CC(C1)c1ccccc13)C2 [Compound 20, 4-[((1r,4r)-4-(3-(9-Methyl-5,6,8,9,10,11-Hexahydro-7H-5,9:7,11-dimethanobenzo[9]annulen-7-yl)ureido)cyclohexyl)oxy]benzoic Acid]

SMILES: O=C(NC12CC3CC(Cl)(CC(C1)c1ccccc13)C2)N[C@H]1CC[C@H](Oc2ccc(C(=O)O)cc2)CC1 [Compound 22, 4-[((1r,4r)-4-(3-(9-Chloro-5,6,8,9,10,11-hexahydro-7H-5,9:7,11-dimethanobenzo[9]annulen-7-yl)ureido)cyclohexyl)oxy]benzoic Acid]
Total Concentration in mouse plasma, individual mice ([1]; 3 mg/kg ip, 0.25 h (5400 for 20 excluded as outlier)): 151 ng/mL and 291 ng/mL and 622 ng/mL
Total Concentration in mouse plasma, individual mice ([1]; 3 mg/kg ip, 0.5 h): 1520 ng/mL and 1980 ng/mL
Total Concentration in mouse plasma, individual mice ([1]; 3 mg/kg ip, 1 h): 1100 ng/mL and 2640 ng/mL and 600 ng/mL
Total Concentration in mouse plasma, individual mice ([1]; 3 mg/kg ip, 2 h): 2440.0 ng/mL and 2640.0 ng/mL and 5670.0 ng/mL
Total Concentration in mouse plasma, individual mice ([1]; 3 mg/kg ip, 4 h): 1960.0 ng/mL and 1350.0 ng/mL
Total Concentration in mouse plasma, individual mice ([1]; 3 mg/kg ip, 6 h): 1160 ng/mL and 734.0 ng/mL and 1530 ng/mL
Total Concentration in mouse plasma, individual mice ([1]; 3 mg/kg ip, 24 h): 181.0 ng/mL and 40.6 ng/mL and 92.3 ng/mL
concentration at 0.25 h ([1]; male, C57BL/6, mouse, in vivo, 3 mg/kg, 3 mg/kg ip, 0.25 h, read-out: Mean concentration in mouse plasma): 355 ng/mL
concentration at 0.5 h ([1]; male, C57BL/6, mouse, in vivo, 3 mg/kg, 3 mg/kg ip, 0.5 h, read-out: Mean concentration in mouse plasma): 1620 ng/mL
concentration at 0.5 h ([1]; male, C57BL/6, mouse, in vivo, 3 mg/kg, 3 mg/kg ip, 0.5 h, read-out: Total Concentration in mouse plasma, individual mice): 1350 ng/mL
concentration at 1 h ([1]; male, C57BL/6, mouse, in vivo, 3 mg/kg, 3 mg/kg ip, 1 h, read-out: Mean concentration in mouse plasma): 1450 ng/mL
concentration at 2 h ([1]; male, C57BL/6, mouse, in vivo, 3 mg/kg, 3 mg/kg ip, 2 h, read-out: Mean concentration in mouse plasma): 3580 ng/mL
concentration at 4 h ([1]; male, C57BL/6, mouse, in vivo, 3 mg/kg, 3 mg/kg ip, 4 h, read-out: Mean concentration in mouse plasma): 1520 ng/mL
concentration at 4 h ([1]; male, C57BL/6, mouse, in vivo, 3 mg/kg, 3 mg/kg ip, 4 h, read-out: Total Concentration in mouse plasma, individual mice): 1240 ng/mL
concentration at 6 h ([1]; male, C57BL/6, mouse, in vivo, 3 mg/kg, 3 mg/kg ip, 6 h, read-out: Mean concentration in mouse plasma): 1140 ng/mL
concentration at 24 h ([1]; male, C57BL/6, mouse, in vivo, 3 mg/kg, 3 mg/kg ip, 24 h, read-out: Mean concentration in mouse plasma): 105 ng/mL
AUC(0-t) [1, 3]: 22500 ng·h/mL
Cl [1, 3]: 2.17 mL/min/kg
Cmax [1, 3]: 3580 ng/mL
Tmax [1, 3]: 2 h
Vd [1, 3]: 0.96 L/kg
half-life [1, 3]: 5.2 h
AUC(0-inf) [1, 3]: 23300 ng·h/mL
concentration in pancreatic tissues ([2]; 0.1 mg/kg IP): no amount of 22 was detected
concentration at 10 h ([2]; pancreas, 0.3 mg/kg IP, read-out: concentration in pancreas): 29.9 ng/g
concentration at 10 h ([2]; plasma, 0.1 mg/kg IP, read-out: plasma level): 14 nM
concentration at 10 h ([2]; plasma, 0.3 mg/kg IP, read-out: plasma level): 175 nM
CYP 2D6 inhibition (CYP 2D6): 11 ± 3%

— publication PMC8634379, “From the Design to the In Vivo Evaluation of Benzohomoadamantane-Derived Soluble Epoxide Hydrolase Inhibitors for the Treatment of Acute Pancreatitis” (Journal of Medicinal Chemistry, 2021)
